Measured values as given in ChEMBL document CHEMBL1201862, “PubChem BioAssay data set” (2004).
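Briefly, cells in 96-well plates were exposed to five compound concentrations for 48 h, and endpoints were estimated by linear interpolation. Abbreviation: GI50, concentration required for 50% inhibition of growth.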 Calls of active or inactive are those of the source. Cut-off read from the data, not from the text of the source: active = GI50 up to about 1.1 µM and inactive = higher.

Assays:
Experiment in all cases: NCI anticancer screen, dose series, 48 h
786-0 = test system: 786-0
A549 = test system: A549
ACHN = test system: ACHN
CCRF-CEM = test system: CCRF-CEM
DU-145 = test system: DU-145
K562 = test system: K562
MDA-N = test system: MDA-N
MOLT-4 = test system: MOLT-4
Malme-3M = test system: Malme-3M
OVCAR-3 = test system: OVCAR-3
PC-3 = test system: PC-3
RPMI-8226 = test system: RPMI-8226
RXF 393 = test system: RXF 393
SF-268 = test system: SF-268
SN12C = test system: SN12C
SNB-19 = test system: SNB-19
U-251 = test system: U-251
UACC-257 = test system: UACC-257
BT-549 = test system: BT-549

With `CSc1ccc(/C=C/c2ccnc3ccccc23)cc1` the GI50 (786-0) was 14.8 µM (inactive), the GI50 (A549) was 12.5 µM (inactive) and the GI50 (ACHN) was 14.1 µM (inactive). For the same compound, the GI50 (CCRF-CEM) was 17.9 µM (inactive), the GI50 (DU-145) was 13.9 µM (inactive) and the GI50 (K562) was 5.47 µM (inactive). For the same compound, the GI50 (MDA-N) was 13.7 µM (inactive), the GI50 (MOLT-4) was 12.2 µM (inactive) and the GI50 (Malme-3M) was 17.6 µM (inactive). For the same compound, the GI50 (OVCAR-3) was 13.2 µM (inactive), the GI50 (PC-3) was 6.67 µM (inactive) and the GI50 (RPMI-8226) was 8.43 µM (inactive). For the same compound, the GI50 (RXF 393) was 18.5 µM (inactive), the GI50 (SF-268) was 26 µM (inactive) and the GI50 (SN12C) was 15.5 µM (inactive). For the same compound, the GI50 (SNB-19) was 17.7 µM (inactive), the GI50 (U-251) was 12.8 µM (inactive) and the GI50 (UACC-257) was 18.4 µM (inactive).
For `C[C@]12CC(c3ccccc3O1)C(C(=O)Nc1nc(C34CC5CC(CC(C5)C3)C4)cs1)C(=O)N2` (stereo partly drawn), the GI50 (786-0) was > 100 µM (inactive), the GI50 (A549) was > 100 µM (inactive) and the GI50 (ACHN) was > 100 µM (inactive). The GI50 (BT-549) was > 100 µM (inactive), the GI50 (CCRF-CEM) was 89.1 µM (inactive) and the GI50 (DU-145) was > 100 µM (inactive). For the same compound, the GI50 (K562) was > 100 µM (inactive), the GI50 (MOLT-4) was > 100 µM (inactive) and the GI50 (Malme-3M) was 34.7 µM (inactive). The GI50 (OVCAR-3) was > 100 µM (inactive), the GI50 (PC-3) was > 100 µM (inactive) and the GI50 (RPMI-8226) was > 100 µM (inactive). The GI50 (RXF 393) was > 100 µM (inactive), the GI50 (SF-268) was > 100 µM (inactive) and the GI50 (SN12C) was > 100 µM (inactive). For the same compound, the GI50 (SNB-19) was > 100 µM (inactive), the GI50 (U-251) was > 100 µM (inactive) and the GI50 (UACC-257) was > 100 µM (inactive).
`COc1ccc2c(c1)CC[C@@H]1C2CC[C@]2(C)C(=C=CP(=O)(O)O)CCC12` (stereo partly drawn) was tested, and the GI50 (786-0) was > 100 µM (inactive), the GI50 (A549) was > 100 µM (inactive) and the GI50 (ACHN) was > 100 µM (inactive). For the same compound, the GI50 (DU-145) was > 100 µM (inactive), the GI50 (K562) was > 100 µM (inactive) and the GI50 (MDA-N) was > 100 µM (inactive). For the same compound, the GI50 (Malme-3M) was > 100 µM (inactive), the GI50 (OVCAR-3) was > 100 µM (inactive) and the GI50 (PC-3) was > 100 µM (inactive). The GI50 (RPMI-8226) was < 0.01 µM (active), the GI50 (RXF 393) was > 100 µM (inactive) and the GI50 (SF-268) was > 100 µM (inactive). For the same compound, the GI50 (SN12C) was > 100 µM (inactive), the GI50 (SNB-19) was > 100 µM (inactive) and the GI50 (U-251) was > 100 µM (inactive). For the same compound, the GI50 (UACC-257) was > 100 µM (inactive).
With `CN(/N=C/C=N/N(C)C1=NCCCCN1)C1=NCCCCN1` the GI50 (786-0) was > 100 µM (inactive), the GI50 (A549) was > 100 µM (inactive) and the GI50 (ACHN) was > 100 µM (inactive). The GI50 (BT-549) was > 100 µM (inactive), the GI50 (CCRF-CEM) was > 100 µM (inactive) and the GI50 (K562) was > 100 µM (inactive). The GI50 (MDA-N) was > 100 µM (inactive), the GI50 (MOLT-4) was > 100 µM (inactive) and the GI50 (Malme-3M) was > 100 µM (inactive). For the same compound, the GI50 (OVCAR-3) was > 100 µM (inactive), the GI50 (PC-3) was > 100 µM (inactive) and the GI50 (RXF 393) was > 100 µM (inactive). The GI50 (SF-268) was > 100 µM (inactive), the GI50 (SN12C) was > 100 µM (inactive) and the GI50 (SNB-19) was > 100 µM (inactive). The GI50 (U-251) was > 100 µM (inactive) and the GI50 (UACC-257) was > 100 µM (inactive).
In the case of `O=C(O)CCc1ccc2c(c1)C(=O)CC2`, the GI50 (786-0) is reported as > 100 µM (inactive), the GI50 (A549) is reported as > 100 µM (inactive) and the GI50 (ACHN) is reported as > 100 µM (inactive). For the same compound, the GI50 (BT-549) was > 100 µM (inactive), the GI50 (CCRF-CEM) was > 100 µM (inactive) and the GI50 (DU-145) was > 100 µM (inactive). The GI50 (K562) was > 100 µM (inactive), the GI50 (MDA-N) was > 100 µM (inactive) and the GI50 (MOLT-4) was > 100 µM (inactive). The GI50 (Malme-3M) was > 100 µM (inactive), the GI50 (OVCAR-3) was > 100 µM (inactive) and the GI50 (RPMI-8226) was > 100 µM (inactive). For the same compound, the GI50 (RXF 393) was > 100 µM (inactive), the GI50 (SF-268) was > 100 µM (inactive) and the GI50 (SN12C) was > 100 µM (inactive). For the same compound, the GI50 (SNB-19) was > 100 µM (inactive), the GI50 (U-251) was > 100 µM (inactive) and the GI50 (UACC-257) was > 100 µM (inactive).
With `O=C1OC2(CCCCC2)C(Oc2ccc(Cl)cc2)=C1F` the GI50 (786-0) was 48.3 µM (inactive), the GI50 (A549) was 42.1 µM (inactive) and the GI50 (ACHN) was 45.4 µM (inactive). For the same compound, the GI50 (CCRF-CEM) was 29.7 µM (inactive), the GI50 (DU-145) was 92.9 µM (inactive) and the GI50 (K562) was 30.6 µM (inactive). For the same compound, the GI50 (MDA-N) was 37.2 µM (inactive), the GI50 (MOLT-4) was 20.3 µM (inactive) and the GI50 (Malme-3M) was 15.6 µM (inactive). The GI50 (OVCAR-3) was 40.3 µM (inactive), the GI50 (PC-3) was 42.8 µM (inactive) and the GI50 (RPMI-8226) was 32.7 µM (inactive). For the same compound, the GI50 (RXF 393) was 61.9 µM (inactive), the GI50 (SF-268) was 54 µM (inactive) and the GI50 (SN12C) was 45.2 µM (inactive). For the same compound, the GI50 (SNB-19) was 88.7 µM (inactive), the GI50 (U-251) was 61.8 µM (inactive) and the GI50 (UACC-257) was 24.3 µM (inactive).
With `O=C(Cc1ccccc1)NN1C(=O)/C(=C\c2cccc([N+](=O)[O-])c2)S/C1=N\c1ccccc1` the GI50 (786-0) was > 100 µM (inactive), the GI50 (A549) was > 100 µM (inactive) and the GI50 (ACHN) was > 100 µM (inactive). For the same compound, the GI50 (DU-145) was > 100 µM (inactive), the GI50 (K562) was > 100 µM (inactive) and the GI50 (MDA-N) was > 100 µM (inactive). For the same compound, the GI50 (MOLT-4) was 42.5 µM (inactive), the GI50 (OVCAR-3) was > 100 µM (inactive) and the GI50 (RPMI-8226) was > 100 µM (inactive). For the same compound, the GI50 (RXF 393) was > 100 µM (inactive), the GI50 (SF-268) was > 100 µM (inactive) and the GI50 (SN12C) was > 100 µM (inactive). The GI50 (SNB-19) was > 100 µM (inactive), the GI50 (U-251) was > 100 µM (inactive) and the GI50 (UACC-257) was > 100 µM (inactive).
`O=C1N2CCC[C@H]2CS1(=O)=O` was tested, and the GI50 (786-0) was 11.1 µM (inactive), the GI50 (A549) was 22.8 µM (inactive) and the GI50 (ACHN) was 15.2 µM (inactive). For the same compound, the GI50 (BT-549) was 14.8 µM (inactive), the GI50 (CCRF-CEM) was 2.3 µM (inactive) and the GI50 (DU-145) was 17.9 µM (inactive). For the same compound, the GI50 (K562) was 5.62 µM (inactive), the GI50 (MOLT-4) was 3.34 µM (inactive) and the GI50 (Malme-3M) was 13.2 µM (inactive). The GI50 (OVCAR-3) was 15.8 µM (inactive), the GI50 (PC-3) was 16.5 µM (inactive) and the GI50 (RPMI-8226) was 2.77 µM (inactive). The GI50 (RXF 393) was 7.36 µM (inactive), the GI50 (SF-268) was 20.7 µM (inactive) and the GI50 (SN12C) was 15.7 µM (inactive). The GI50 (SNB-19) was 35.9 µM (inactive), the GI50 (U-251) was 16.5 µM (inactive) and the GI50 (UACC-257) was 18.7 µM (inactive).
